From US20190307843A1, “SINGLE DOSE METHODS FOR PREVENTING AND TREATING FUNGAL INFECTIONS” (Cidara Therapeutics, Inc., priority 2016, published 2019)
Starred links: 1 amine or outer side, 2 acyl side, 3 side chain; linkers in the order of their positions; H or OH if unused. Positions of bridges follow the written chain, without caps; N, C: chain ends. Non-standard residues stand in square brackets, D forms with d. Residues, ends and D or L forms follow the SMILES beside them. *: point of attachment. Orn(4R-OH,5R-OCH2CH2NMe3+) = C[N+](C)(C)CCO[C@@H](N[*:3])[C@H](O)C[C@H](N[*:1])C(=O)[*:2]; pTerphenylCO(4''-OnC5H11) = CCCCCOc1ccc(-c2ccc(-c3ccc(C(=O)*)cc3)cc2)cc1; hTyr(3S-OH,4S-OH) = N[C@H](C(=O)O)[C@H](O)[C@@H](O)c1ccc(O)cc1; Pro(3S-OH,4S-Me) = C[C@H]1CN[C@H](C(=O)O)[C@H]1O; Hyp = O=C(O)[C@@H]1C[C@@H](O)CN1

How the values were obtained:
A. fumigatus AF293 = assay: Murine model of pulmonary aspergillosis (Example 19), survival; conditions: CD101 20 and 60 mg/kg once one day pre-infection
[1] = tested on: C. albicans SC-5314 biofilms; assay: Adhesion phase biofilms (prevention), XTT metabolic activity and CSLM; assay type: cell-based, Candida albicans
C. parapsilosis = assay: In vitro susceptibility testing (CLSI M27-A3), C. parapsilosis; assay type: cell-based, Candida parapsilosis; conditions: Lodderomyces parapsilosis, 24 h
Experimental: Ten clinical Candida strains were used for the in vivo treatment studies, including four C. albicans, three C. glabrata, and three C. parapsilosis strains (Table 15). This group was selected to encompass phenotypic variability in susceptibility to triazoles and echinocandins and based on similar fitness in the animal model as defined by the amount of growth in control animals over 24 h. The organisms were maintained, grown, and quantified on Sabouraud's dextrose agar (SDA) plates.
In vitro susceptibility testing. All isolates were tested in accordance with the standards in CLSI document M27-A3. The MICs were determined visually after 24 h of incubation as the lowest concentration of drug that causes a significant diminution (50%) of growth compared to controls. MICs were determined on three separate occasions in duplicate.

[2] = tested on: A. fumigatus strain AF293; assay: Murine model of pulmonary aspergillosis (Example 13), survival
[3] = tested on: C. albicans SC-5314 biofilms; assay: Time lapse microscopy of biofilm formation; assay type: cell-based, Candida albicans; conditions: CD101 0.25 μg/ml; 0 h up to 16 h
From the text: The effective CD101 concentration obtained from the above experiments was used to monitor its effect on biofilm formation in real time using TLM, which involves capturing real-time images of a single frame at specific time intervals, allowing temporal monitoring of the interactions occurring between the drug and Candida biofilms. Captured images were combined in a time sequence, resulting in an animation depicting the sequence of events that occurred with the passage of time. Briefly, the discs with C. albicans (adhered for 90 min as above) were placed in a 35-mm-diameter glass-bottom Petri dish (MatTek Corp., Ashland, Mass.). […] Phase contrast images for this interaction were captured immediately from 0 h and followed up to 16-17 h on a Leica DMI 6000 B inverted microscope connected to a Retiga EXi Aqua camera (Q-imaging Vancouver British Columbia). To determine the structural changes in the maturing biofilm, both acquisition and analysis of a series of horizontal (xy) optical sections of the biofilm was done using Metamorph Imaging software (Molecular Devices, Downington, Pa.). Disc incubated with media alone was used as control.

[4] = CD101 5mpk Day −3 vs. CD101 5mpk Day −5
[5] = CD101 5mpk Day −5 vs. CD101 10mpk Day −5
[6] = CD101 5mpk Day −5 vs. CD101 20mpk Day −5
[7] = CD101 20mpk Day −1 vs. CD101 20mpk Day −3
[8] = Micafungin 2mpk Day −1 vs. CD101 10mpk Day −1
[9] = Micafungin 2mpk Day −1 vs. CD101 20mpk Day −1

CCCCCOc1ccc(-c2ccc(-c3ccc(C(=O)N[C@H]4C[C@@H](O)[C@@H](OCC[N+](C)(C)C)NC(=O)[C@@H]5[C@@H](O)[C@@H](C)CN5C(=O)[C@H]([C@@H](C)O)NC(=O)[C@H]([C@H](O)[C@@H](O)c5ccc(O)cc5)NC(=O)[C@@H]5C[C@@H](O)CN5C(=O)[C@H]([C@@H](C)O)NC4=O)cc3)cc2)cc1 [CD101] ({pTerphenylCO(4''-OnC5H11)}-[Orn(4R-OH,5R-OCH2CH2NMe3+)]T[Hyp][hTyr(3S-OH,4S-OH)]T[Pro(3S-OH,4S-Me)]; lactam 1-C)
survival (A. fumigatus AF293): slight increase in survival
biofilm formation by metabolic activity (XTT) ([1]; CD101 0.25 and 1 μg/ml, 24 h, vs untreated): formed significantly less biofilms compared to untreated C. albicans
thickness of biofilms ([1]; exposure to CD101, untreated control 36 μm): 4 μm
MIC (C. parapsilosis; C. parapsilosis 20423.072): 0.5 µg/mL
MIC (C. parapsilosis; C. parapsilosis 20477.048): 1 µg/mL
MIC (C. parapsilosis; C. parapsilosis 20519.069): 1 µg/mL
Mean Survival ([2]; CD101 5 mg/kg IP Day 0): 67.8 h
Median Survival ([2]; CD101 5 mg/kg IP Day 0): 64.6 h
Mean Survival ([2]; CD101 5 mg/kg IP Day −1): 72.1 h
Median Survival ([2]; CD101 5 mg/kg IP Day −1): 67.6 h
Mean Survival ([2]; CD101 5 mg/kg IP Day −3): 70.0 h
Median Survival ([2]; CD101 5 mg/kg IP Day −3): 67.7 h
Mean Survival ([2]; CD101 5 mg/kg IP Day −5): 65.3 h
Median Survival ([2]; CD101 5 mg/kg IP Day −5): 65.3 h
Mean Survival ([2]; CD101 10 mg/kg IP Day −1): 121.8 h
Median Survival ([2]; CD101 10 mg/kg IP Day −1): 81.0 h
Mean Survival ([2]; CD101 10 mg/kg IP Day −3): 76.9 h
Median Survival ([2]; CD101 10 mg/kg IP Day −3): 73.4 h
Mean Survival ([2]; CD101 10 mg/kg IP Day −5): 67.2 h
Median Survival ([2]; CD101 10 mg/kg IP Day −5): 65.7 h
Mean Survival ([2]; CD101 20 mg/kg IP Day −1): 155.6 h
Median Survival ([2]; CD101 20 mg/kg IP Day −1): 72.3 h
Mean Survival ([2]; CD101 20 mg/kg IP Day −3): 91.9 h
Median Survival ([2]; CD101 20 mg/kg IP Day −3): 69.8 h
Mean Survival ([2]; CD101 20 mg/kg IP Day −5): 75.5 h
Median Survival ([2]; CD101 20 mg/kg IP Day −5): 69.8 h
Log-Rank test, survival [2, 4]: 0.0183
Peto-Prentice (Wilcoxon) test, survival [2, 4]: 0.0426
Log-Rank test, survival [2, 5]: 0.0009
Peto-Prentice (Wilcoxon) test, survival [2, 5]: 0.0015
Log-Rank test, survival [2, 6]: 0.0009
Peto-Prentice (Wilcoxon) test, survival [2, 6]: 0.0015
Log-Rank test, survival [2, 7]: 0.0387
Peto-Prentice (Wilcoxon) test, survival [2, 7]: 0.033
Peto-Prentice (Wilcoxon) test, survival ([2]; Micafungin 2mpk Day −1 vs. CD101 5mpk Day −1): 0.0467
Log-Rank test, survival [2, 8]: 0.0201
Peto-Prentice (Wilcoxon) test, survival [2, 8]: 0.0191
Log-Rank test, survival [2, 9]: 0.0047
Peto-Prentice (Wilcoxon) test, survival [2, 9]: 0.0067
Log-Rank test, survival ([2]; Vehicle vs. CD101 20mpk Day −1): NS (0.0533)
Peto-Prentice (Wilcoxon) test, survival ([2]; Vehicle vs. CD101 20mpk Day −1): 0.0465
biofilm formation in real time [3]: only adhered cells with stunted growth, which failed to grow into mature biofilms
